From patent publication US9206212B2, “Actinomycete strain composition and its use” (CENTRE NATIONAL DE LA RECHERCHE SCIENTIFIQUE, priority 2011, dated 2015) come the findings set out here.

For one data set, the system named is Streptomyces sp. BG76. Nature of the data set: Antibiotic sensibility of the strain. Type of data set: cell-based. The arrangement: key to Antibiotic sensibility: S: sensitive; R: resistant. The note with it: for Antibiotic sensibility: amount given with each antibiotic (30 μg, 300 U, 10 μg, 10 U, 250 μg).
In data set [1] the test system is Bacillus subtilis ATCC 9524 (BS). Nature of the data set: Antimicrobial bioassay, paper filter disk technique (agar diffusion). The format is cell-based. The protocol:
(§1) The retention time of the main peaks D1 and D2 were 15.62 and 17.99 min, respectively. These fractions were checked again for both activities with mineral phosphate solubilization test and anti microbial bioassay, against ML, BS, PU and MR using the paper filter disk technique.
(§2) The purified Viridomycin (compound 1) was checked for anti microbial bioassay, against Micrococcus luteus ATCC 381 (ML), Bacillus subtilis ATCC 9524 (BS) and the phytopathogenic fungi Pythium ultimum (PU) and Mucor ramannianus NRRL 1829 (MR) using the paper filter disk technique.
On the technique in general: Agar diffusion results depend on both activity and mobility in agar.

The test system of data set [2] is Micrococcus luteus ATCC 381 (ML). Described as above. Type of data set: cell-based. The protocol: as §1, §2
The subject of data set [3] is Mucor ramannianus NRRL 1829 (MR). The description is as above. Type of data set: cell-based. The protocol: as §1, §2
The subject of the next data set is Pythium ultimum (PU). The data set is described as above. The format is cell-based. As for the experimental part: as §1, §2
The nature of data set [4]: Mineral phosphate solubilization test.
Data set [5] is described as follows: Mineral phosphate solubilization test. The source holds these as a separate data set.
Data set [6] in a line: Solubility of the antibiotic. The note with it: methanol and water. The format is physicochemical.
[7] abbreviates: filter disc i.d. 6 mm, c = 20 μg/mL, 20 μL/disc.
Setting [8] is: HPLC peak of fraction D, FIG. 4.
Setting [9] is: purified Compound 1 at final concentration 98.5 mg·mL^−1.

Where a SMILES comes first, the peptide text is derived from it. Bridges are numbered along the chain shown (N, C = ends). [ ]: non-standard residue; d: D form. The star is where a group is joined. Ileψ(thiazoline)Cys = CC[C@H](C)[C@H](N)C1=N[C@H](C(=O)*)CS1; dOrn = NCCC[C@@H](N)C(=O)O

`CC[C@H](C)[C@H](N)C1=N[C@H](C(=O)N[C@@H](CC(C)C)C(=O)N[C@H](CCC(=O)O)C(=O)N[C@H](C(=O)N[C@H]2CCCCNC(=O)[C@H](CC(N)=O)NC(=O)[C@@H](CC(=O)O)NC(=O)[C@H](Cc3cnc[nH]3)NC(=O)[C@@H](Cc3ccccc3)NC(=O)[C@H]([C@@H](C)CC)NC(=O)[C@@H](CCCN)NC2=O)[C@@H](C)CC)CS1` [Bacitracine] ({Ileψ(thiazoline)Cys}-L[dE]IK[dOrn]I[dF]H[dD]N; lactam 4-C): in the data set with Streptomyces sp. BG76, the “Sensitivity of the strain to the antibiotic (in words)” value (“Sensitivity of the strain” for short) is recorded as “sensitive” and the Antibiotic sensibility entry was “S”.

`CC(=O)OCC1=C(C(=O)O)N2C(=O)[C@@H](NC(=O)Cc3cccs3)[C@H]2SC1` [Cefalotin]: in the data set on Streptomyces sp. BG76, the “Sensitivity of the strain” value is given as “sensitive” and the Antibiotic sensibility result is “S”.

For `CO[C@@H]1[C@@H](OC(N)=O)[C@@H](O)[C@H](Oc2ccc3c(O)c(NC(=O)c4ccc(O)c(CC=C(C)C)c4)c(=O)oc3c2C)OC1(C)C` [Novobiocine], in the data set with Streptomyces sp. BG76, the “Sensitivity of the strain” value was “sensitive” and the Antibiotic sensibility result is “S”.

`NS(N)(=O)=O` [Sulfamides]: in the data set with Streptomyces sp. BG76, the “Sensitivity of the strain” value is given as “resistant” and the Antibiotic sensibility entry is given as “R”.

In the case of Gentamycine, in the data set with Streptomyces sp. BG76, the “Sensitivity of the strain” value was “sensitive” and the Antibiotic sensibility entry is “S”.

With Polymyxin B, in the data set on Streptomyces sp. BG76, the “Sensitivity of the strain” value is reported as “sensitive” and the Antibiotic sensibility entry is “S”.

As to “Tris (3-imino-4-oxo-cyclohexa-1,5-diene-carbaldehydro) iron (III) [Compound 1]”, the “Diameter of microbial growth inhibition zone” value in data set [1] (setting [7]) came out at 29 mm; in data set [2] (setting [7]), 45 mm; in data set [3] (setting [7]), 38 mm; in the data set on Pythium ultimum (PU) (setting [7]) it was 27 mm. Moreover, the “Antimicrobial activity (in words)” value (in data set [1] (on the standard media); in data set [2] (on the standard media); in data set [3] (on the standard media); with Pythium ultimum (PU) (on the standard media)) was “inhibited” throughout. Besides, the “Mineral phosphate solubilization activity (in words)” value in data set [4] (setting [8]) and in data set [5] (setting [8]) was “mineral phosphate solubilization activities” throughout. Also, the “Concentration of solubilized Phosphate from RP” value in data set [4] (setting [9]) was 63.7 µg/mL. In data set [5] (setting [9]), the “Concentration of solubilized Phosphate from TC” value was 135.2 µg/mL. For the same molecule, in data set [6], the Solubility entry is “soluble in methanol and water”.
